Key:
CIMPR = CIMPR (Homo sapiens, UniProt P11717); test: CIMPR affinity chromatography (CIMPR column, free M6P gradient); assay type: binding; settings: fraction of total enzyme by GAA activity; for rhGAA that did not bind to the CIMPR: eluted prior to addition of M6P
Experimental: To evaluate the ability of the rhGAA in Myozyme® and Lumizyme®, the only currently approved treatments for Pompe disease, these rhGAA preparations were injected onto a CIMPR column (which binds rhGAA having M6P groups) and subsequently eluted with a free […] gradient. Fractions were collected in 96-well plate and GAA activity assayed by 4MU-α-glucose substrate. The relative amounts of bound and unbound rhGAA were determined based on GAA activity and reported as the fraction of total enzyme.

[1] = test system: normal and Pompe fibroblast cell lines; test: Cellular uptake of rhGAA in normal and Pompe fibroblast cell lines; assay type: cell-based
Experimental: The relative cellular uptake of ATB200 and Lumizyme® rhGAA were compared using normal and Pompe fibroblast cell lines. […] After 16-hr incubation, external rhGAA was inactivated with TRIS base and cells were washed 3-times with PBS prior to harvest. Internalized GAA measured by 4MU-α-Glucoside hydrolysis and was graphed relative to total cellular protein and the results appear in FIGS. 11A-B.

Gaa KO mice = test: Muscle function in Gaa-knockout mice, 12 biweekly administrations (grip strength, wire hang); assay type: in vivo, mouse; settings: 12 biweekly administrations, ERT 20 mg/kg (miglustat 10 mg/kg)
From the text: In FIG. 18A, * indicates statistically significant compared to Lumizyme® alone (p<0.05, 2-sided t-test). In FIGS. 19A-19G, * indicates statistically significant compared to Lumizyme® alone (p<0.05, multiple comparison using Dunnett's method under one-way ANOVA analysis).

[2] = Plasma miglustat pharmacokinetics, phase 1/2 study in adults with Pompe disease; assay type: in vivo, human; settings: for CL/F: arithmetic mean (CV %)
Experimental: Mean total GAA protein and miglustat PK results from the first 8 Cohort 1 patients through Visit 9 and the first 2 Cohort 3 patients were assessed.

[3] = Apparent plasma half-life in vivo

Sequence of CIMPR (P11717 41-2491, species assumed): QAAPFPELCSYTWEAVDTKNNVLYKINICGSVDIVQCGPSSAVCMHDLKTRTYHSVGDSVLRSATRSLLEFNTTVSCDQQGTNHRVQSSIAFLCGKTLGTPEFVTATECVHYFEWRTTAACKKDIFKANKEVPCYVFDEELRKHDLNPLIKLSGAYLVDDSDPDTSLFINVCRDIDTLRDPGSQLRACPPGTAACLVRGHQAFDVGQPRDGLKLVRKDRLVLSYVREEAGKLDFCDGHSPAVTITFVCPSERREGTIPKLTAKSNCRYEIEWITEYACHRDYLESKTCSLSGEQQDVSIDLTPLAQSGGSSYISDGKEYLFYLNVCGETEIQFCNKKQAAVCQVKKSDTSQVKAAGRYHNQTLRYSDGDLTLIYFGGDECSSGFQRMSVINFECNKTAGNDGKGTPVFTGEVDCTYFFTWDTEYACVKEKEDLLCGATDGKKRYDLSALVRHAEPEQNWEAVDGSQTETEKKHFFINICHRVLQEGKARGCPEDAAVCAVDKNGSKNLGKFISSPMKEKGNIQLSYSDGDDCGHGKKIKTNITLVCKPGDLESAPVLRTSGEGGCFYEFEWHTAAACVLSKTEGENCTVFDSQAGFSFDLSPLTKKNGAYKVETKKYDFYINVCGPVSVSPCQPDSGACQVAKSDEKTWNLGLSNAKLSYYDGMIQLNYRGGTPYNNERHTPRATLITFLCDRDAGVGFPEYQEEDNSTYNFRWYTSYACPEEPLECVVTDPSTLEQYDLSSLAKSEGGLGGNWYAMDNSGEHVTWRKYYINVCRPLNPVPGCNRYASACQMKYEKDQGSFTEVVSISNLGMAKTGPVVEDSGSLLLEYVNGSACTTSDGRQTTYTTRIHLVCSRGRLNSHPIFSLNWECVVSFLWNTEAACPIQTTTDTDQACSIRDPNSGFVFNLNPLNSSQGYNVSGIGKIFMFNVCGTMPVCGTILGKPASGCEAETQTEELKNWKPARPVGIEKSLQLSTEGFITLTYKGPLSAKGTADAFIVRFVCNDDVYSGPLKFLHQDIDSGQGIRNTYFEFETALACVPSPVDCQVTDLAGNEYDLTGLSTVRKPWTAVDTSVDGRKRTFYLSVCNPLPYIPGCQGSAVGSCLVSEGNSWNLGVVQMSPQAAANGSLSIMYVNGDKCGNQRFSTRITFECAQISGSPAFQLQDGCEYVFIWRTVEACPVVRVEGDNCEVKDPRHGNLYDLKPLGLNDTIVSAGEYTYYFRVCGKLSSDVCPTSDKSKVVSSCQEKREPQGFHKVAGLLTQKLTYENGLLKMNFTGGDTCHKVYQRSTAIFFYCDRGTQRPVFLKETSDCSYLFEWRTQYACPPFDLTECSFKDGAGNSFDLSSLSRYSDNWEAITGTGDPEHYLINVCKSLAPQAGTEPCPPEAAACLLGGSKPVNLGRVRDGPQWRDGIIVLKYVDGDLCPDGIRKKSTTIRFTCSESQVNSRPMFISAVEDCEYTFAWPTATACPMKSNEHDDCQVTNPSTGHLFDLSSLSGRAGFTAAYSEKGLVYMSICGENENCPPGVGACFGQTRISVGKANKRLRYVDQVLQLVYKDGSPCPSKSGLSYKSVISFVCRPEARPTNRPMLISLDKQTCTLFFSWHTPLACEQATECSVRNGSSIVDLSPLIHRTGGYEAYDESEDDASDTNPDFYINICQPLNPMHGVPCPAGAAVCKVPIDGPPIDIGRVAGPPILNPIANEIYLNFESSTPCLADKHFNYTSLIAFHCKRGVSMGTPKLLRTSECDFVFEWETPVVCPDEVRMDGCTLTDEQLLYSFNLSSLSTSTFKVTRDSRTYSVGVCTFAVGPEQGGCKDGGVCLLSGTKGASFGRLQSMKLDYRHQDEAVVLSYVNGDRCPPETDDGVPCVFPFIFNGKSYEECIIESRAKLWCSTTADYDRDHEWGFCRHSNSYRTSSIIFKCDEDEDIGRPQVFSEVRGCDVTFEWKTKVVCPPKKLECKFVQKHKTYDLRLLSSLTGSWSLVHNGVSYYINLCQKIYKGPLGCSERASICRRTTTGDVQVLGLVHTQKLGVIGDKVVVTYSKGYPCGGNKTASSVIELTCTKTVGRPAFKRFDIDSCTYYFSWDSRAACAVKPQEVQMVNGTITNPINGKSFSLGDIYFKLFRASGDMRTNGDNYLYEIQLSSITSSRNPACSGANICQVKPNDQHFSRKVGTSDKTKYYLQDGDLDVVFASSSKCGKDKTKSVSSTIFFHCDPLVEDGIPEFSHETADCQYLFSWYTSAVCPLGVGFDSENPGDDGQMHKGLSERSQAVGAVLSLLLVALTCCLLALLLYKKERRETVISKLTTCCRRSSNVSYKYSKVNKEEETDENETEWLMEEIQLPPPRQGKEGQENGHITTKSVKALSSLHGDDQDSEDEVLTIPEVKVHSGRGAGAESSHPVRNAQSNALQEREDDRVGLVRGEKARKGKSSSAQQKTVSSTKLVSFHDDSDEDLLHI

Myozyme®: conventional rhGAA product containing alglucosidase alfa, Genzyme
rhGAA that contained M6P / bound CIMPR (eluted with M6P) (CIMPR): 27% | rhGAA that did not bind to the CIMPR (CIMPR): 73%

Lumizyme®: conventional rhGAA product containing alglucosidase alfa, Genzyme
rhGAA that contained M6P / bound CIMPR (eluted with M6P) (CIMPR): 22% | rhGAA that did not bind to the CIMPR (CIMPR): 78% | concentration that saturates cellular receptors ([1]; 16-hr incubation): about 250 nM | uptake efficiency constant (Kuptake) ([1]; extrapolated, FIG. 11C): 56 nM | functional muscle strength (grip strength and wire hang tests) (Gaa KO mice): observed to decline under identical conditions throughout most of the study

CCCCN1C[C@H](O)[C@@H](O)[C@H](O)[C@H]1CO [Miglustat, miglustat]
plasma miglustat kinetics ([2]; 130 mg and 260 mg oral): dose-proportional kinetics | CL/F ([2]; High MD): 10.3 (26.4) L/h | CL/F ([2]; High SD): 10.6 (33) L/h | CL/F ([2]; Low MD): 10.2 (23.9) L/h | CL/F ([2]; Low SD): 10.6 (23) L/h

[199-arginine,223-histidine]prepro-α-glucosidase (human) [alglucosidase alfa, reference compound]
apparent plasma half-life (t1/2) [3]: ~60 min

Source: patent US10512676B2, “Formulations comprising recombinant acid alpha-glucosidase” (Amicus Therapeutics, Inc., priority 2016, dated 2019)
